pEC50: −log10 of the molar value.

The target in the test is T1, KCNQ 2/3 channels (Homo sapiens, UniProt O43525+O43526).
T1 construct: expressed in transfected cells; host or cells: HEK293
Nature of the test: KCNQ 2/3 channel activation, thallium flux FLIPR assay (BTC-AM dye). The conditions noted are these: for Emax: HEK293, maximum response relative to the response of 10 μM retigabine (set at 100%), read-out: % MAX; for Emax / % MAX: HEK293 KCNQ2/KCNQ3 cells; for pEC50: HEK293 cells stably expressing human KCNQ2 and KCNQ3 subunits, thallium-induced fluorescence, 4 min compound incubation; for % MAX: maximum response relative to the response of 10 μM retigabine (set at 100%). Type of test: cell-based. Summed up: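 HEK293 cells stably expressing human KCNQ2/KCNQ3 were loaded with BTC-AM (3 μg/mL, 2 h, RT) and preincubated with compound for 4 min in pH 7.3 gluconate buffer containing 0.1 mM ouabain. Flux was triggered by 6 mM TlNO3/10 mM K2SO4 and read for 3 min; EC50 came from summed responses over basal, with maximum relative to 10 μM retigabine (100%).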

One may read the pEC50 as the negative decadic logarithm of the EC50, by convention in mol/L. `CCC1CN(c2nn(NC(=O)Cc3ccc(Cl)cc3)c(=O)c3ccccc23)CCO1` (stereo not shown) [Example 221, 2-(4-chlorophenyl)-N-[4-(2-ethylmorpholin-4-yl)-1-oxophthalazin-2(1H)-yl]acetamide]: the Emax is 101% and the pEC50 is 6.49.

`O=C(Cc1ccc(Cl)cc1)Nn1nc(N2CCN(Cc3ccccc3)CC2)c2ccccc2c1=O` [Example 101, N-[4-(4-benzylpiperazin-1-yl)-1-oxophthalazin-2(1H)-yl]-2-(4-chlorophenyl)acetamide]: the Emax is 112% and the pEC50 is 5.46.

Consider `CC1CN(c2nn(NC(=O)Cc3ccc(Cl)cc3)c(=O)c3ccccc23)CC(C)O1` (stereo not shown) [Example 62, 2-(4-chlorophenyl)-N-[4-(2,6-dimethylmorpholin-4-yl)-1-oxophthalazin-2(1H)-yl]acetamide], for which the Emax amounted to 85.8% and the pEC50 is 6.43.

For `O=C(Cc1ccc(Cl)cc1)Nn1nc(S(=O)(=O)Cc2ccccc2)c2ccccc2c1=O` [Example 216, N-[4-(benzylsulfonyl)-1-oxophthalazin-2(1H)-yl]-2-(4-chlorophenyl)acetamide], the Emax was 67.1% and the pEC50 was 5.74.

As to `O=C(Cc1cc(F)cc(F)c1)Nn1nc(-c2cccs2)c2ccccc2c1=O` [Example 10, 2-(3,5-difluorophenyl)-N-[1-oxo-4-(thiophen-2-yl)phthalazin-2(1H)-yl]acetamide], the Emax was found to be 137% and the pEC50 is 6.79.

Consider `Cc1cccc(CC(=O)Nn2nc(N3CCOCC3)c3ccccc3c2=O)c1` [Example 140, 2-(3-methylphenyl)-N-[4-(morpholin-4-yl)-1-oxophthalazin-2(1H)-yl]acetamide], for which the Emax turned out to be 103% and the pEC50 is 5.16.

As to `O=C(CC1CC2CCC1C2)Nn1nc(-c2cccnc2)c2ccccc2c1=O` (racemic) [Example 8, (±)-2-[(exo)-bicyclo[2.2.1]hept-2-yl]-N-[1-oxo-4-(pyridin-3-yl)phthalazin-2(1H)-yl]acetamide], the Emax was 129% and the pEC50 was 6.34.

As for `Cc1ccccc1CC(=O)Nn1nc(N2CCOCC2)c2ccccc2c1=O` [Example 139, 2-(2-methylphenyl)-N-[4-(morpholin-4-yl)-1-oxophthalazin-2(1H)-yl]acetamide], the Emax is -1.4%.

Turning to `O=C(CC1CCCO1)Nn1nc(-c2ccnc(Cl)c2)c2ccccc2c1=O` (stereo not shown) [Example 73, N-[4-(2-chloropyridin-4-yl)-1-oxophthalazin-2(1H)-yl]-2-(tetrahydrofuran-2-yl)acetamide], the Emax is 172% and the pEC50 was 5.09.

Regarding `N#Cc1ccc(S(=O)(=O)c2nn(NC(=O)C[C@H]3C[C@@H]4CC[C@H]3C4)c(=O)c3ccccc23)cc1` (racemic) [Example 219, (±)-2-[(exo)-bicyclo[2.2.1]hept-2-yl]-N-{4-[(4-cyanophenyl)sulfonyl]-1-oxophthalazin-2(1H)-yl}acetamide], the Emax amounted to 145% and the pEC50 was 7.84.

For the compound `O=C(Cc1cc(F)cc(F)c1)Nn1nc(-c2ccccn2)c2ccccc2c1=O` [Example 18, 2-(3,5-difluorophenyl)-N-[1-oxo-4-(pyridin-2-yl)phthalazin-2(1H)-yl]acetamide], the Emax came out at 112% and the pEC50 is 5.55.

With `O=C(Cc1ccc(Br)cc1)Nn1nc(S(=O)(=O)c2ccccc2)c2ccccc2c1=O` [Example 206, 2-(4-bromophenyl)-N-[1-oxo-4-(phenylsulfonyl)phthalazin-2(1H)-yl]acetamide], the Emax amounted to 99.3% and the pEC50 was 7.16.

On to `O=C(CC1CCCCC1)Nn1nc(N2CCOCC2)c2ccccc2c1=O` [Example 138, 2-cyclohexyl-N-[4-(morpholin-4-yl)-1-oxophthalazin-2(1H)-yl]acetamide], for which the Emax was determined as 153% and the pEC50 was 5.41.

Regarding `O=C(Cc1ccc(O)cc1)Nn1nc(N2CCOCC2)c2ccccc2c1=O` [Example 144, 2-(4-hydroxyphenyl)-N-[4-(morpholin-4-yl)-1-oxophthalazin-2(1H)-yl]acetamide], the Emax was found to be 39.9% and the pEC50 is 5.16.

With `CS(=O)(=O)c1ccc(CC(=O)Nn2nc(N3CCOCC3)c3ccccc3c2=O)cc1` [Example 130, 2-[4-(methylsulfonyl)phenyl]-N-[4-(morpholin-4-yl)-1-oxophthalazin-2(1H)-yl]acetamide], the Emax is 5.33%.

With `Cc1cc(-c2nn(NC(=O)CC3CC4CCC3C4)c(=O)c3ccccc23)ccn1` (racemic) [Example 50, (±)-2-[(exo)-bicyclo[2.2.1]hept-2-yl]-N-[4-(2-methylpyridin-4-yl)-1-oxophthalazin-2(1H)-yl]acetamide], the Emax was 151% and the pEC50 is 5.95.

As to `CC1CN(c2nn(NC(=O)CC3CC4CCC3C4)c(=O)c3ccccc23)CC(C)O1` (racemic) [Example 64, (±)-2-[(exo)-bicyclo[2.2.1]hept-2-yl]-N-[4-(2,6-dimethylmorpholin-4-yl)-1-oxophthalazin-2(1H)-yl]acetamide], the pEC50 is 7.04 and the “% MAX” value was determined as 144%.

Turning to `O=C(Cc1ccc(Cl)cc1)Nn1nc(-c2cccnc2)c2ccccc2c1=O` [Example 9, 2-(4-chlorophenyl)-N-[1-oxo-4-(pyridin-3-yl)phthalazin-2(1H)-yl]acetamide], the Emax turned out to be 19.6%.

With `O=C(CC1CC2CCC1C2)Nn1nc(NCc2ccccc2)c2ccccc2c1=O` (racemic) [Example 34, (±)-N-[4-(benzylamino)-1-oxophthalazin-2(1H)-yl]-2-[(exo)-bicyclo[2.2.1]hept-2-yl]acetamide], the Emax turned out to be 161% and the pEC50 is 6.85.

`O=C(CC1CC2CCC1C2)Nn1nc(N2CCCCC2)c2ccccc2c1=O` (racemic) [Example 25, (±)-2-[(exo)-bicyclo[2.2.1]hept-2-yl]-N-[1-oxo-4-(piperidin-1-yl)phthalazin-2(1H)-yl]acetamide]: the Emax worked out at 144% and the pEC50 was 7.60.

As to `O=C(CC1CC2CCC1C2)Nn1nc(C(=O)Nc2ccc(Cl)cc2)c2ccccc2c1=O` (racemic) [Example 108, (±)-3-{[(exo)-bicyclo[2.2.1]hept-2-ylacetyl]amino}-N-(4-chlorophenyl)-4-oxo-3,4-dihydrophthalazine-1-carboxamide], the Emax was 155% and the pEC50 is 5.69.

For `O=C(Cc1cccc(Br)c1)Nn1nc(N2CCOCC2)c2ccccc2c1=O` [Example 154, 2-(3-bromophenyl)-N-[4-(morpholin-4-yl)-1-oxophthalazin-2(1H)-yl]acetamide], the Emax is 114% and the pEC50 was 5.54.

For `O=C(CC12CC3CC(CC1C3)C2)Nn1nc(N2CCOCC2)c2ccccc2c1=O` [Example 210, 2-(hexahydro-2,5-methanopentalen-3a(1H)-yl)-N-[4-(morpholin-4-yl)-1-oxophthalazin-2(1H)-yl]acetamide], the Emax stood at 154% and the pEC50 is 6.79.

Take `Nc1ccc(S(=O)(=O)c2nn(NC(=O)Cc3ccc(Cl)cc3)c(=O)c3ccccc23)cc1` [Example 115, N-{4-[(4-aminophenyl)sulfonyl]-1-oxophthalazin-2(1H)-yl}-2-(4-chlorophenyl)acetamide]: the Emax worked out at 42.2%.

On to `O=C(Cc1cc(F)cc(F)c1)Nn1nc(N2CCSCC2)c2ccccc2c1=O` [Example 92, 2-(3,5-difluorophenyl)-N-[1-oxo-4-(thiomorpholin-4-yl)phthalazin-2(1H)-yl]acetamide], for which the Emax is 187% and the pEC50 was 6.21.

Consider `O=C(Cc1ccc(Cl)cc1)Nn1nc(-c2ccnc(C(F)(F)F)c2)c2ccccc2c1=O` [Example 77, 2-(4-chlorophenyl)-N-{1-oxo-4-[2-(trifluoromethyl)pyridin-4-yl]phthalazin-2(1H)-yl}acetamide], for which the Emax was determined as 74.9% and the pEC50 is 6.34.

With `COc1ccc(-c2nn(NC(=O)CC3CC4CCC3C4)c(=O)c3ccccc23)cn1` (racemic) [Example 26, (±)-2-[(exo)-bicyclo[2.2.1]hept-2-yl]-N-[4-(6-methoxypyridin-3-yl)-1-oxophthalazin-2(1H)-yl]acetamide], the Emax stood at 137% and the pEC50 is 6.51.

Take `CC1CN(c2nn(NC(=O)CC3CC4CCC3C4)c(=O)c3ccccc23)CC(C)O1` (racemic) [Example 90, (±)-2-[(exo)-bicyclo[2.2.1]hept-2-yl]-N-{4-[(cis)-2,6-dimethylmorpholin-4-yl]-1-oxophthalazin-2(1H)-yl}acetamide]: the pEC50 was 6.85 and the “% MAX” value was determined as 196%.

With `O=C(CC1CC2CCC1C2)Nn1nc(SCc2ccccc2)c2ccccc2c1=O` (racemic) [Example 214, (±)-N-[4-(benzylsulfanyl)-1-oxophthalazin-2(1H)-yl]-2-[(exo)-bicyclo[2.2.1]hept-2-yl]acetamide], the Emax stood at 197% and the pEC50 is 7.66.

Turning to `O=C(Cc1ccc(Cl)cc1)Nn1nc(Oc2ccccc2)c2ccccc2c1=O` [Example 127, 2-(4-chlorophenyl)-N-(1-oxo-4-phenoxyphthalazin-2(1H)-yl)acetamide], the Emax amounted to 87.4% and the pEC50 was 6.74.

Take `CC(C)(C)OC(=O)NCc1nn(NC(=O)Cc2ccc(F)cc2)c(=O)c2ccccc12` [Example 125, tert-butyl[(3-{[(4-fluorophenyl)acetyl]amino}-4-oxo-3,4-dihydrophthalazin-1-yl)methyl]carbamate]: the Emax is 93.1% and the pEC50 is 5.00.

(Values after patent publication US8859549B2, “Potassium channel modulators” (AbbVie, Inc., priority 2011, dated 2014).)
